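Growth conditions: 96-well plates. Treatment: test compound, 48 hours, 5 concentrations. Analysis: linear interpolation between bracketing concentrations; unreached endpoints set to highest concentration. Here, GI50 denotes the concentration required for 50% inhibition of growth. TGI is the concentration that stops growth completely.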
What was measured:
Experiment in all cases: growth of human tumour cells (NCI), 48 h
[1] = tested on: HT29 colon
[2] = tested on: SF-295 CNS
[3] = tested on: CAKI-1 renal
[4] = tested on: RPMI-8226 leukemia
[5] = tested on: U251 CNS
[6] = tested on: T-47D breast
[7] = tested on: NCI-H522 lung
[8] = tested on: HCC-2998 colon
[9] = tested on: CCRF-CEM leukemia
[10] = tested on: A498 renal
[11] = tested on: OVCAR-3 ovarian
[12] = tested on: NCI/ADR-RES ovarian
[13] = tested on: RXF 393 renal
[14] = tested on: SW-620 colon
[15] = tested on: NCI-H23 lung
[16] = tested on: SF-539 CNS
[17] = tested on: BT-549 breast
[18] = tested on: SN12C renal
[19] = tested on: HOP-92 NSCLC
[20] = tested on: KM12 colon
[21] = tested on: EKVX NSCLC
[22] = tested on: DU-145 prostate
[23] = tested on: SNB-75 CNS
[24] = tested on: UACC-62 melanoma
[25] = tested on: 786-0 renal
[26] = tested on: MDA-MB-231 breast
[27] = tested on: A549 NSCLC
[28] = tested on: IGROV1 ovarian
[29] = tested on: K-562 leukemia
[30] = tested on: LOX IMVI melanoma
[31] = tested on: M14 melanoma
[32] = tested on: MCF7 breast
[33] = tested on: HCT-116 colon
[34] = tested on: SK-OV-3 ovarian
[35] = tested on: SR leukemia
[36] = tested on: SK-MEL-5 melanoma
[37] = tested on: MALME-3M melanoma
[38] = tested on: OVCAR-4 ovarian
[39] = tested on: UACC-257 melanoma
[40] = tested on: UO-31 renal
[41] = tested on: SF-268 CNS
[42] = tested on: MDA-MB-468 breast
[43] = tested on: SK-MEL-28 melanoma
[44] = tested on: COLO 205 colon
[45] = tested on: PC-3 prostate
[46] = tested on: OVCAR-5 ovarian
[47] = tested on: HOP-62 NSCLC
[48] = tested on: SNB-19 CNS
[49] = tested on: ACHN renal
[50] = tested on: TK-10 renal
[51] = tested on: MOLT-4 leukemia
[52] = tested on: HL-60(TB) leukemia
[53] = tested on: MDA-MB-435
[54] = tested on: HCT-15 colon

Question: Which GI50 [1] does the source give for CC[C@]12C=CCN3CC[C@@]4(c5ccc(OC)cc5N(C)[C@H]4[C@@](O)(C(=O)OC)[C@@H]1OC(=O)CCC[P+](c1ccc(C)cc1)(c1ccc(C)cc1)c1ccc(C)cc1)[C@@H]32 here?
Answer: Its GI50 is 195 nM.

Question: And the TGI [1]?
Answer: The TGI was 446 nM.

Question: What about the GI50 [2] of the same compound?
Answer: The GI50 was 371 nM.

Question: What about the TGI [2] of the same compound?
Answer: The TGI was 1310 nM.

Question: And the GI50 [3]?
Answer: The GI50 was 1330 nM.

Question: And the TGI [3]?
Answer: Its TGI is 3050 nM.

Question: What about the GI50 [4] of the same compound?
Answer: The GI50 was 128 nM.

Question: What about the TGI [4] of the same compound?
Answer: The TGI was 1040 nM.

Question: And the GI50 [5]?
Answer: Its GI50 is 258 nM.

Question: What about the TGI [5] of the same compound?
Answer: The TGI was 1400 nM.

Question: What about the GI50 [6] of the same compound?
Answer: The GI50 was 247 nM.

Question: What about the TGI [6] of the same compound?
Answer: Its TGI is 907 nM.

Question: And the GI50 [7]?
Answer: Its GI50 is 264 nM.

Question: And the TGI [7]?
Answer: Its TGI is 929 nM.

Question: What about the GI50 [8] of the same compound?
Answer: The GI50 was 319 nM.

Question: And the TGI [8]?
Answer: Its TGI is 1200 nM.

Question: What about the GI50 [9] of the same compound?
Answer: Its GI50 is 301 nM.

Question: And the TGI [9]?
Answer: The TGI was 1450 nM.

Question: What about the GI50 [10] of the same compound?
Answer: Its GI50 is 1560 nM.

Question: And the TGI [10]?
Answer: The TGI was 3230 nM.

Question: And the GI50 [11]?
Answer: Its GI50 is 337 nM.

Question: And the TGI [11]?
Answer: The TGI was 1270 nM.

Question: What about the GI50 [12] of the same compound?
Answer: Its GI50 is 8870 nM.

Question: And the TGI [12]?
Answer: Its TGI is 49600 nM.

Question: And the GI50 [13]?
Answer: Its GI50 is 256 nM.

Question: And the TGI [13]?
Answer: Its TGI is 911 nM.

Question: And the GI50 [14]?
Answer: Its GI50 is 399 nM.

Question: What about the TGI [14] of the same compound?
Answer: Its TGI is 1580 nM.

Question: What about the GI50 [15] of the same compound?
Answer: Its GI50 is 282 nM.

Question: And the TGI [15]?
Answer: Its TGI is 1020 nM.

Question: What about the GI50 [16] of the same compound?
Answer: The GI50 was 313 nM.

Question: And the TGI [16]?
Answer: Its TGI is 1100 nM.

Question: What about the GI50 [17] of the same compound?
Answer: The GI50 was 227 nM.

Question: What about the TGI [17] of the same compound?
Answer: Its TGI is 727 nM.

Question: What about the GI50 [18] of the same compound?
Answer: The GI50 was 264 nM.

Question: And the TGI [18]?
Answer: The TGI was 949 nM.

Question: And the GI50 [19]?
Answer: Its GI50 is 173 nM.

Question: What about the TGI [19] of the same compound?
Answer: The TGI was 578 nM.

Question: And the GI50 [20]?
Answer: The GI50 was 309 nM.

Question: And the TGI [20]?
Answer: The TGI was 1110 nM.

Question: What about the GI50 [21] of the same compound?
Answer: Its GI50 is 460 nM.

Question: What about the TGI [21] of the same compound?
Answer: Its TGI is 1780 nM.

Question: What about the GI50 [22] of the same compound?
Answer: Its GI50 is 427 nM.

Question: And the TGI [22]?
Answer: The TGI was 1580 nM.

Question: What about the GI50 [23] of the same compound?
Answer: Its GI50 is 217 nM.

Question: And the TGI [23]?
Answer: The TGI was 777 nM.

Question: What about the GI50 [24] of the same compound?
Answer: The GI50 was 247 nM.

Question: And the TGI [24]?
Answer: Its TGI is 822 nM.

Question: What about the GI50 [25] of the same compound?
Answer: The GI50 was 756 nM.

Question: What about the TGI [25] of the same compound?
Answer: The TGI was 2080 nM.

Question: What about the GI50 [26] of the same compound?
Answer: Its GI50 is 234 nM.

Question: And the TGI [26]?
Answer: Its TGI is 610 nM.

Question: And the GI50 [27]?
Answer: Its GI50 is 369 nM.

Question: And the TGI [27]?
Answer: Its TGI is 1470 nM.

Question: What about the GI50 [28] of the same compound?
Answer: Its GI50 is 336 nM.

Question: And the TGI [28]?
Answer: Its TGI is 1180 nM.

Question: What about the GI50 [29] of the same compound?
Answer: Its GI50 is 140 nM.

Question: What about the TGI [29] of the same compound?
Answer: The TGI was 1150 nM.

Question: What about the GI50 [30] of the same compound?
Answer: The GI50 was 327 nM.

Question: What about the TGI [30] of the same compound?
Answer: Its TGI is 1140 nM.

Question: And the GI50 [31]?
Answer: Its GI50 is 384 nM.

Question: What about the TGI [31] of the same compound?
Answer: The TGI was 1370 nM.

Question: And the GI50 [32]?
Answer: The GI50 was 229 nM.

Question: What about the TGI [32] of the same compound?
Answer: The TGI was 968 nM.

Question: What about the GI50 [33] of the same compound?
Answer: The GI50 was 271 nM.

Question: And the TGI [33]?
Answer: The TGI was 1110 nM.

Question: And the GI50 [34]?
Answer: The GI50 was 262 nM.

Question: And the TGI [34]?
Answer: Its TGI is 794 nM.

Question: And the GI50 [35]?
Answer: The GI50 was 294 nM.

Question: What about the TGI [35] of the same compound?
Answer: The TGI was 1400 nM.

Question: What about the GI50 [36] of the same compound?
Answer: The GI50 was 356 nM.

Question: What about the TGI [36] of the same compound?
Answer: The TGI was 1040 nM.

Question: And the GI50 [37]?
Answer: Its GI50 is 189 nM.

Question: And the TGI [37]?
Answer: The TGI was 448 nM.

Question: And the GI50 [38]?
Answer: Its GI50 is 352 nM.

Question: What about the TGI [38] of the same compound?
Answer: The TGI was 1580 nM.

Question: What about the GI50 [39] of the same compound?
Answer: The GI50 was 310 nM.

Question: What about the TGI [39] of the same compound?
Answer: Its TGI is 1120 nM.

Question: What about the GI50 [40] of the same compound?
Answer: Its GI50 is 1450 nM.

Question: What about the TGI [40] of the same compound?
Answer: The TGI was 2820 nM.

Question: And the GI50 [41]?
Answer: The GI50 was 335 nM.

Question: And the TGI [41]?
Answer: The TGI was 1420 nM.

Question: What about the GI50 [42] of the same compound?
Answer: The GI50 was 133 nM.

Question: What about the TGI [42] of the same compound?
Answer: Its TGI is 354 nM.

Question: What about the GI50 [43] of the same compound?
Answer: Its GI50 is 383 nM.

Question: What about the TGI [43] of the same compound?
Answer: Its TGI is 1460 nM.

Question: What about the GI50 [44] of the same compound?
Answer: The GI50 was 180 nM.

Question: And the TGI [44]?
Answer: The TGI was 364 nM.

Question: What about the GI50 [45] of the same compound?
Answer: Its GI50 is 236 nM.

Question: What about the TGI [45] of the same compound?
Answer: Its TGI is 1080 nM.

Question: And the GI50 [46]?
Answer: The GI50 was 267 nM.

Question: What about the TGI [46] of the same compound?
Answer: Its TGI is 905 nM.

Question: And the GI50 [47]?
Answer: Its GI50 is 311 nM.

Question: What about the TGI [47] of the same compound?
Answer: Its TGI is 1170 nM.

Question: What about the GI50 [48] of the same compound?
Answer: The GI50 was 290 nM.

Question: And the TGI [48]?
Answer: Its TGI is 1140 nM.

Question: And the GI50 [49]?
Answer: The GI50 was 1320 nM.

Question: What about the TGI [49] of the same compound?
Answer: Its TGI is 2700 nM.

Question: What about the GI50 [50] of the same compound?
Answer: The GI50 was 602 nM.

Question: And the TGI [50]?
Answer: The TGI was 1920 nM.

Question: And the GI50 [51]?
Answer: The GI50 was 320 nM.

Question: What about the TGI [51] of the same compound?
Answer: Its TGI is 1460 nM.

Question: And the GI50 [52]?
Answer: Its GI50 is 178 nM.

Question: What about the TGI [52] of the same compound?
Answer: The TGI was 593 nM.

Question: And the GI50 [53]?
Answer: The GI50 was 290 nM.

Question: And the TGI [53]?
Answer: The TGI was 1040 nM.

Question: And the GI50 [54]?
Answer: The GI50 was 1630 nM.

Question: And the TGI [54]?
Answer: The TGI was 3040 nM.

Reference: PubChem BioAssay (NCI)
